Tests used:
wild type virus (IIIB) = assay: HIV-AVE-MT4-MTT cellular assay, wild type virus (IIIB); format: cell-based; conditions: MT4 cells, MTT; for HIV-AVE-MT4-MTT-IIIB-2-002 pEC50: wild type virus (IIIB); for EC50: Human immunodeficiency virus 1, IIIB, MT4, wild type virus (IIIB), read-out: HIV-AVE-MT4-MTT-IIIB-2-002 pEC50 (converted)
Protocol: (§1) HIV- or mock-infected MT4 cells were incubated for five days in the presence of various concentrations of the inhibitor. At the end of the incubation period, all HIV-infected cells have been killed by the replicating virus in the control cultures in the absence of any inhibitor. Cell viability is measured by measuring the concentration of MTT, a yellow, water soluble tetrazolium dye that is converted to a purple, water insoluble formazan in the mitochondria of living cells only. Upon solubilization of the resulting formazan crystals with isopropanol, the absorbance of the solution is monitored at 540 nm. The values correlate directly to the number of living cells remaining in the culture at the completion of the five day incubation. The inhibitory activity of the compound was monitored on the virus-infected cells and was expressed as EC50 and EC90. These values represent the amount of the compound required to protect 50% and 90%, respectively, of the cells from the cytopathogenic effect of the virus. The toxicity of the compound was measured on the mock-infected cells and was expressed as CC50, which represents the concentration of compound required to inhibit the growth of the cells by 50%. The selectivity index (SI) (ratio CC50/EC50) is an indication of the selectivity of the anti-HIV activity of the inhibitor.

virus strain S (R13080) = assay: microbe, parasite or virus in culture; format: cell-based, HIV; conditions: Human immunodeficiency virus 1, MT4, read-out: HIV-AVE-MT4-MTT-R13080-2-002 pEC50, virus strain S (R13080), MT4 cells, MTT (converted)
Protocol: as §1, with “At the end of the incubation period, all HIV-infected cells have been killed by the replicating virus in the control cultures in the absence of any inhibitor.” left out
(§2) Because of the increasing emergence of drug resistant HIV strains, the present compounds were tested for their potency against clinically isolated HIV strains harboring several mutations.
(§3) As a measure of the broad spectrum activity of the present compounds, the fold resistance (FR) defined as FR=EC50(mutant strain)/EC50(HIV-1 strain LAI).

virus strain F (R13025) = assay: microbe, parasite or virus in culture; format: cell-based, HIV; conditions: for EC50: Human immunodeficiency virus 1, MT4, read-out: HIV-AVE-MT4-MTT-R13025-2-002 pEC50, virus strain F (R13025), MT4 cells, MTT (converted); for HIV-AVE-MT4-MTT-R13025-2-002 pEC50: virus strain F (R13025), MT4 cells
Protocol: as §1, with “At the end of the incubation period, all HIV-infected cells have been killed by the replicating virus in the control cultures in the absence of any inhibitor.” left out
as §2, §3

Row | EC50 (wild type virus (IIIB)) | Compound | EC50 (virus strain S (R13080)) | EC50 (virus strain F (R13025)) | also measured
1 | – | CC(C)CN(C[C@@H](O)[C@H](Cc1ccccc1)NC(=O)[C@@H](NC(=O)CNCc1cccc(F)c1)C(C)(C)C)S(=O)(=O)c1ccc2nc(NCCN3CCCC3)sc2c1.O=C(O)C(F)(F)F.O=C(O)C(F)(F)F [Compound 85, N′-[(3-fluorophenyl)methyl]glycyl-N-[(1S,2R)-2-hydroxy-3-[(2-methylpropyl)[[2-[2-(pyrrolidin-1-yl)ethylamino]benzothiazol-6-yl]sulfonyl]amino]-1-(phenylmethyl)propyl]-3-methyl-L-Valinamide, bis-trifluoroacetate] | – | – | HIV-AVE-MT4-MTT-IIIB-2-002 pEC50 (wild type virus (IIIB)): 7.24
2 | 240 nM | CC(C)CN(C[C@@H](O)[C@H](Cc1ccccc1)NC(=O)O[C@@H]1COC2OCCNC21)S(=O)(=O)c1ccc2nc(NCCN3CCCC3)sc2c1 (stereo partly drawn) [Compound 101] | – | – | –
3 | 66.1 nM | CC(=O)Nc1nc2ccc(S(=O)(=O)N(CC(C)C)C[C@@H](O)[C@H](Cc3ccccc3)NC(=O)COc3c(C)cc([N+](=O)[O-])cc3C)cc2s1 [Compound 104] | – | – | –
4 | – | Cc1cccc(C)c1OCC(=O)N[C@@H](Cc1ccccc1)[C@H](O)CN(CC(C)C)S(=O)(=O)c1ccc2nc(NC(=O)c3ccccn3)sc2c1 [Compound 112] | 151 nM | – | HIV-AVE-MT4-MTT-R13025-2-002 pEC50 (virus strain F (R13025)): 6.91; HIV-AVE-MT4-MTT-IIIB-2-002 pEC50 (wild type virus (IIIB)): 8
5 | 302 nM | CC(C)CN(C[C@@H](O)[C@H](Cc1ccccc1)NC(=O)OC(C)(C)C)S(=O)(=O)c1ccc2nc(NCc3ccccn3)sc2c1 [Compound 118] | – | – | –
6 | – | CC(C)CN(C[C@@H](O)[C@H](Cc1ccccc1)NC(=O)OC(C)(C)C)S(=O)(=O)c1ccc2nc(NCc3ccccn3)sc2c1 [Compound 119] | – | – | HIV-AVE-MT4-MTT-IIIB-2-002 pEC50 (wild type virus (IIIB)): 6.48
7 | 316 nM | CC(C)CN(C[C@@H](O)[C@H](Cc1ccccc1)NC(=O)OC(C)(C)C)S(=O)(=O)c1ccc2nc(NCCc3ccccn3)sc2c1 [Compound 120] | – | – | –
8 | 1200 nM | CC(C)CN(C[C@@H](O)[C@H](Cc1ccccc1)NC(=O)OC(C)(C)C)S(=O)(=O)c1ccc2nc(N3CCOCC3)sc2c1 [Compound 122] | – | – | –
9 | 1580 nM | CC(C)CN(C[C@@H](O)[C@H](Cc1ccccc1)NC(=O)OC(C)(C)C)S(=O)(=O)c1ccc2nc(N(C)CCN3CCCC3)sc2c1 [Compound 123] | – | – | –
10 | 2000 nM | CC(C)CN(C[C@@H](O)[C@H](Cc1ccccc1)NC(=O)OC(C)(C)C)S(=O)(=O)c1ccc2nc(N(C)CCCN3CCCC3)sc2c1 [Compound 124] | – | – | –
11 | 63.1 nM | Cc1cccc(C)c1OCC(=O)N[C@@H](Cc1ccccc1)[C@H](O)CN(CC(C)C)S(=O)(=O)c1ccc2nc(NCc3ccccn3)sc2c1 [Compound 129] | – | – | –
12 | 58.9 nM | Cc1cccc(C)c1OCC(=O)N[C@@H](Cc1ccccc1)[C@H](O)CN(CC(C)C)S(=O)(=O)c1ccc2nc(NCc3cccnc3)sc2c1 [Compound 130] | – | – | –
13 | 64.6 nM | Cc1cccc(C)c1OCC(=O)N[C@@H](Cc1ccccc1)[C@H](O)CN(CC(C)C)S(=O)(=O)c1ccc2nc(NCCc3ccccn3)sc2c1 [Compound 132] | – | – | –
14 | 61.7 nM | Cc1cccc(C)c1OCC(=O)N[C@@H](Cc1ccccc1)[C@H](O)CN(CC(C)C)S(=O)(=O)c1ccc2nc(NCC3CCCO3)sc2c1 (stereo partly drawn) [Compound 134] | – | – | –
15 | 66.1 nM | COC(=O)CCNc1nc2ccc(S(=O)(=O)N(CC(C)C)C[C@@H](O)[C@H](Cc3ccccc3)NC(=O)COc3c(C)cccc3C)cc2s1 [Compound 135] | – | – | –
16 | 724 nM | Cc1cccc(C)c1OCC(=O)N[C@@H](Cc1ccccc1)[C@H](O)CN(CC(C)C)S(=O)(=O)c1ccc2nc(N3CCOCC3)sc2c1 [Compound 136] | – | – | –
17 | 1700 nM | Cc1cccc(C)c1OCC(=O)N[C@@H](Cc1ccccc1)[C@H](O)CN(CC(C)C)S(=O)(=O)c1ccc2nc(N(C)CCN3CCOCC3)sc2c1 [Compound 137] | – | – | –
18 | 1450 nM | Cc1cccc(C)c1OCC(=O)N[C@@H](Cc1ccccc1)[C@H](O)CN(CC(C)C)S(=O)(=O)c1ccc2nc(N(C)CCCN3CCCC3)sc2c1 [Compound 138] | – | – | –
19 | – | Cc1cccc(C)c1OCC(=O)N[C@@H](Cc1ccccc1)[C@H](O)CN(CC(C)C)S(=O)(=O)c1ccc2nc(NC(=O)c3ccccn3)sc2c1 [Compound 140] | – | – | HIV-AVE-MT4-MTT-R13025-2-002 pEC50 (virus strain F (R13025)): 8.12; HIV-AVE-MT4-MTT-IIIB-2-002 pEC50 (wild type virus (IIIB)): 8.34
20 | 5620 nM | CC(C)CN(C[C@@H](O)[C@H](Cc1ccccc1)NC(=O)OC(C)(C)C)S(=O)(=O)c1ccc2nc(N3CCC[C@@H]3C(=O)O)sc2c1 [Compound 142] | – | – | –
21 | 339 nM | Cc1cccc(C)c1OCC(=O)N[C@@H](Cc1ccccc1)[C@@H](CN(CC(C)C)S(=O)(=O)c1ccc2nc(NC(=O)c3ccccc3)sc2c1)OC(=O)c1ccncc1 [Compound 147] | – | – | –
22 | 51.3 nM | CC(C)CN(C[C@@H](O)[C@H](Cc1ccccc1)NC(=O)OCc1cncs1)S(=O)(=O)c1ccc2nc(NCCN(C)C(=O)OC(C)(C)C)sc2c1 [Compound 149] | – | – | –

Row | Compound | EC50 (wild type virus (IIIB)) | EC50 (virus strain S (R13080)) | EC50 (virus strain F (R13025)) | also measured
23 | CC(C)CN(C[C@@H](O)[C@H](Cc1ccccc1)NC(=O)O[C@H]1CCOC1)S(=O)(=O)c1ccc2nc(NC(=O)CN3CCCC3)sc2c1 [Compound 100] | 1.32 nM | 70.8 nM | 43.7 nM | –
24 | CC(=O)Nc1nc2ccc(S(=O)(=O)N(CC(C)C)C[C@@H](O)[C@H](Cc3ccccc3)NC(=O)COc3ccon3)cc2s1 [Compound 102] | 12 nM | 955 nM | 132 nM | –
25 | CC(C)CN(C[C@@H](O)[C@H](Cc1ccccc1)NC(=O)O[C@H]1CO[C@H]2OCC[C@H]21)S(=O)(=O)c1ccc2nc(N(C)CCCN(C)C)sc2c1 [Compound 103] | 20 nM | 525 nM | 174 nM | –
26 | CC(=O)Nc1nc2ccc(S(=O)(=O)N(CC(C)C)C[C@@H](O)[C@H](Cc3ccccc3)NC(=O)COc3c(C)cc(C)cc3C)cc2s1 [Compound 105] | 46.8 nM | 479 nM | 56.2 nM | –
27 | CC(C)CN(C[C@@H](O)[C@H](Cc1ccccc1)NC(=O)O[C@H]1CO[C@H]2OCC[C@H]21)S(=O)(=O)c1ccc2nc(N3CCNC3=O)sc2c1 [Compound 106] | 11 nM | 219 nM | 55 nM | –
28 | CC(C)CN(C[C@@H](O)[C@H](Cc1ccccc1)NC(=O)O[C@H]1CO[C@H]2OCC[C@H]21)S(=O)(=O)c1ccc2nc(N3CCN(C)CC3)sc2c1 [Compound 107] | 2 nM | 661 nM | 158 nM | –
29 | CC(C)CN(C[C@@H](O)[C@H](Cc1ccccc1)NC(=O)O[C@H]1CO[C@H]2OCC[C@H]21)S(=O)(=O)c1ccc2nc(N(C)CCCN3CCCC3)sc2c1 [Compound 108] | 24.5 nM | 813 nM | 288 nM | –
30 | Cc1cccc(C)c1OCC(=O)N[C@@H](Cc1ccccc1)[C@H](O)CN(CC(C)C)S(=O)(=O)c1ccc2nc(N(C)CCCN(C)C)sc2c1 [Compound 109] | 2090 nM | – | 4170 nM | –
31 | CC(C)CN(C[C@@H](O)[C@H](Cc1ccccc1)NC(=O)O[C@H]1CO[C@H]2OCC[C@H]21)S(=O)(=O)c1ccc2nc(N(C)CCN3CCCC3)sc2c1 [Compound 110] | 8.13 nM | 1550 nM | 676 nM | –
32 | Cc1cccc(C)c1OCC(=O)N[C@@H](Cc1ccccc1)[C@H](O)CN(CC(C)C)S(=O)(=O)c1ccc2nc(NC(=O)c3cccnc3)sc2c1 [Compound 111] | 24.5 nM | 661 nM | 234 nM | –
33 | Cc1cccc(C)c1OCC(=O)N[C@@H](Cc1ccccc1)[C@H](O)CN(CC(C)C)S(=O)(=O)c1ccc2nc(NC(=O)c3cc(O)cc(O)c3)sc2c1 [Compound 113] | 5.13 nM | 43.7 nM | 24.5 nM | –
